Measurements taken from patent publication US20240279302A1, “OLFACTORY RECEPTOR EXPRESSING METHOD AND RESPONSE MEASUREMENT METHOD” (Kao Corporation, priority 2021, published 2024).

Key:
consensus OR4C15 = target: T1, consensus OR4C15 (Homo sapiens, UniProt Q8NGM1, A218G/A270V/E23K/G63A/I200A/I247V/I275T/L152F/L222F/L266F/M197L/N174D/N209I/N278T/Q295N/R137W/R299K/T258A/T88R/V55G/V87E/W233R); assay: Luciferase assay, sulfur compounds; type: cell-based
T1 construct: Flag (N); Rho tag (N); expressed in transfected cells; host or cells: HEK293
T1 sequence (Q8NGM1 1-311 with the stated changes limits assumed): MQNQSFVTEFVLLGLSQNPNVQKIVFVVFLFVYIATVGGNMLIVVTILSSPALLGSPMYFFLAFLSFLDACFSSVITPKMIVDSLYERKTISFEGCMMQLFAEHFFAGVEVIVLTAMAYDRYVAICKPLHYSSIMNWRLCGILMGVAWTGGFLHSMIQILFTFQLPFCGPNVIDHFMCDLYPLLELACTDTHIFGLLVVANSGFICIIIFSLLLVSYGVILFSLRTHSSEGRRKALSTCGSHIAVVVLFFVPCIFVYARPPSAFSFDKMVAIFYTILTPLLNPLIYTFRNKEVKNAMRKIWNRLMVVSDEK
Experimental: (§1) A reaction solution as to each consensus olfactory receptor prepared in Examples described above was prepared according to the composition shown in Table 4, left standing for 20 minutes in a clean bench, and then added to each well of a 96-well plate (Becton, Dickinson and Company). The original olfactory receptor was used as to OR4S2. Composition shown in Table 20 was used as to OR11H2 and OR4E2. Subsequently, 100 μL of HEK293 cells suspended in DMEM (Nacalai Tesque, Inc.) was inoculated at 2×10^5 cells/cm^2 to each well, and cultured for 24 hours in an incubator kept at 37° C. and 5% CO2. Cells expressing no olfactory receptor (Mock) were provided as a control.
(§2) The medium was removed from the cultures prepared in 1), and 75 μL of a test substance solution (methyl mercaptan (MeSH) (CAS: 74-93-1, Tokyo Chemical Industry Co., Ltd.), dimethyl sulfide (DMS) (CAS: 75-18-3, FUJIFILM Wako Pure Chemical Corp.), dimethyl disulfide (DMDS) (CAS: 624-92-0, Tokyo Chemical Industry Co., Ltd.), concentration range: 0 μM, 1 μM, 3 μM, 10 μM, 30 μM, 100 μM, and 300 μM, or dimethyl trisulfide (DMTS) (CAS: 3658-80-8, Tokyo Chemical Industry Co., Ltd.), concentration range: 0 μM, 0.1 μM, 0.3 μM, 1 μM, 3 μM, 10 μM, and 30 μM) prepared with a fresh medium was added thereto. Under a copper ion addition condition, the test substance solution was adjusted to contain 30 μM copper(II) chloride (FUJIFILM Wako Pure Chemical Corp.) in addition to the odorant. The cells were cultured for 4 hours in a CO2 incubator and the luciferase gene was expressed sufficiently in the cells. Luciferase activity was measured using Dual-Glo™ luciferase assay system (Promega Corp.) in accordance with the operation manual of the product. A luminescence value derived from firefly luciferase induced by test substance stimulation in each well of the 96-well plate was divided by a luminescence value derived from Renilla luciferase to calculate a value (fluc/hRluc) as a signal, which was then used in analysis. The signal under each transfection condition was normalized with the signal value (fluc/hRluc) under an odorant stimulation-free condition defined as 0% and the signal value (fluc/hRluc) by stimulation with 10 μM forskolin defined as 100%, and used as a response (%) in analysis.

consensus OR11H2 = target: T2, consensus OR11H2 (Homo sapiens, UniProt Q8NH07, A157T/A61V/C266F/D203A/E289A/F213L/F41L/F62C/G242R/I210T/I230L/I288V/I49T/K181M/K238L/L128F/L146H/L162I/M76I/N106T/N25R/P269S/Q137R/Q308R/Q30L/R68Q/S246A/S268G/T131A/T283A/T37K/V63A/Y156C); assay: Luciferase assay, sulfur compounds; type: cell-based
T2 construct: expressed in transfected cells; host or cells: HEK293
T2 sequence (Q8NH07 12-326 N25R/Q30L/T37K/F41L/I49T/A61V/F62C/V63A/R68Q/M76I/N106T/L128F/T131A/Q137R/L146H/Y156C/A157T/L162I/K181M/D203A/I210T/F213L/I230L/K238L/G242R/S246A/C266F/S268G/P269S/T283A/I288V/E289A/Q308R): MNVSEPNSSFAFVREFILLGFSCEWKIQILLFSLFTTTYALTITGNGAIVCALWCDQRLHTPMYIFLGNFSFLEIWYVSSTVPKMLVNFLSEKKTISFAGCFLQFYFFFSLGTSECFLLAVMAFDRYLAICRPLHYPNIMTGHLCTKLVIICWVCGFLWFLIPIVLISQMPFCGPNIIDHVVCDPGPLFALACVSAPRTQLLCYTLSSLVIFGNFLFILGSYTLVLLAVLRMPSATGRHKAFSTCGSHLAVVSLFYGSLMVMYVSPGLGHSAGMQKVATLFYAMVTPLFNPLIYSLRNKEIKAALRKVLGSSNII
Experimental: as §1, §2

consensus OR4E2 = target: T3, consensus OR4E2 (Homo sapiens, UniProt Q8NGC2, A48T/F285L/G158V/H228Q/I116T/I142V/I197M/I47V/L183P/M219T/M25I/M36V/Q234R/R21W/S209T/S40L/S54R/T201S/T49I/T99A/V118M/V214L); assay: Luciferase assay, sulfur compounds; type: cell-based
T3 construct: Flag (N); Rho tag (N); expressed in transfected cells; host or cells: HEK293
T3 sequence (Q8NGC2 1-312 R21W/M25I/M36V/S40L/I47V/A48T/T49I/S54R/T99A/I116T/V118M/I142V/G158V/L183P/I197M/T201S/S209T/V214L/M219T/H228Q/Q234R/F285L limits assumed): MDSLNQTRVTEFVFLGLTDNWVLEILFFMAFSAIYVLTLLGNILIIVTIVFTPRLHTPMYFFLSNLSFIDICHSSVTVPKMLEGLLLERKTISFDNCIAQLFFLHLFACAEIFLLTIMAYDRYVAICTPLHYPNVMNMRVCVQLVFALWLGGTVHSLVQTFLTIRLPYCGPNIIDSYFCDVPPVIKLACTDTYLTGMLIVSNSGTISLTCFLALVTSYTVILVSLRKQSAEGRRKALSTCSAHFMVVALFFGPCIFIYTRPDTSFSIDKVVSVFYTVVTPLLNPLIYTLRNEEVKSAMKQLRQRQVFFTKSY
Experimental: as §1, §2

consensus OR4K17 = target: T4, consensus OR4K17 (Homo sapiens, UniProt Q8NGC6, A163V/E24Q/F120Y/F158L/G263S/I192T/I205M/I296T/I46V/K226R/L86V/P230S/S297A/V197I/V23I/V81M/V91T); assay: Luciferase assay, sulfur compounds; type: cell-based
T4 construct: expressed in transfected cells; host or cells: HEK293
T4 sequence (Q8NGC6 with tags, fused parts or gaps V23I/E24Q/I46V/V81M/L86V/V91T/F120Y/F158L/A163V/I192T/V197I/I205M/K226R/P230S/G263S/I296T/S297A): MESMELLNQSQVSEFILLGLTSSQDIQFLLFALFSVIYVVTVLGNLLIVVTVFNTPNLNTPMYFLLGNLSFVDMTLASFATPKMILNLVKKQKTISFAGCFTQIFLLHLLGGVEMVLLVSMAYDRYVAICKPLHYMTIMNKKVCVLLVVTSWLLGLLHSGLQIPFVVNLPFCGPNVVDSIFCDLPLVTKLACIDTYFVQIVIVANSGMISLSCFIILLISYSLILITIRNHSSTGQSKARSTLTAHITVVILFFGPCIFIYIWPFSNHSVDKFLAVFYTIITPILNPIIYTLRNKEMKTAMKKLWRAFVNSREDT
Experimental: as §1, §2

[1] = target: T5, OR4S2 (original olfactory receptor) (Homo sapiens, UniProt Q8NH73); assay: Luciferase assay, sulfur compounds; type: cell-based
T5 construct: expressed in transfected cells; host or cells: HEK293
T5 sequence (Q8NH73 1-311): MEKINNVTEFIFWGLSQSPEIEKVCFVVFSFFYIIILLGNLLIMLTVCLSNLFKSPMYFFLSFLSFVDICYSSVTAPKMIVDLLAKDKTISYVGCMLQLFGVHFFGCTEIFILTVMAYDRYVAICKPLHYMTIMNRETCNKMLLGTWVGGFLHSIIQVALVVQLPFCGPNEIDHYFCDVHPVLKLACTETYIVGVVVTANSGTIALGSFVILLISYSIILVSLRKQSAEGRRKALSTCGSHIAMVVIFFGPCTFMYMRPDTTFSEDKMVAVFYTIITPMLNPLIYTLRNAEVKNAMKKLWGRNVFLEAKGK
Experimental: as §1, §2

OR4E2 = OR4E2 (Homo sapiens, UniProt Q8NGC2); conditions: in the presence of a metal ion (JP-A-2020-513564); cited from earlier work
Chain of OR4E2 (Q8NGC2 whole entry): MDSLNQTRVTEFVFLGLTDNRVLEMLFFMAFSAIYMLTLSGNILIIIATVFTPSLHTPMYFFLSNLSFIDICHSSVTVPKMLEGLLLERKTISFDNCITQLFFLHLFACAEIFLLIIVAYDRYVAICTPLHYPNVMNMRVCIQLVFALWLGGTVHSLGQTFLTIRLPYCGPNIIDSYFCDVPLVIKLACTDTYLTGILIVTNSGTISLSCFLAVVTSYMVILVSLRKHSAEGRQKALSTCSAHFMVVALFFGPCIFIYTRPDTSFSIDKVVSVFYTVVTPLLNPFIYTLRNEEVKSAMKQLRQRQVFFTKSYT

[2] = system: HEK293 cells expressing olfactory receptor; assay: Luciferase assay: ligand responsiveness of consensus vs original olfactory receptors; type: cell-based, human; conditions: consensus design
Experimental: For luciferase assay, a reaction solution was prepared according to composition shown in Table 4, left standing for 20 minutes in a clean bench, and then added to each well of a 96-well plate (Becton, Dickinson and Company). Subsequently, 100 μL of HEK293 cells suspended in DMEM (Nacalai Tesque, Inc.) was inoculated at 2×10^5 cells/cm^2 to each well, and cultured for 24 hours in an incubator kept at 37° C. and 5% CO2. Cells expressing no olfactory receptor (Mock) were provided as a control.
The medium was removed from the cultures prepared in 2), and 75 μL of a test substance solution with a predetermined concentration prepared with a fresh medium was added thereto. The cells were cultured for 4 hours in a CO2 incubator and the luciferase gene was sufficiently expresses in the cells. Luciferase activity was measured using Dual-Glo™ luciferase assay system (Promega Corp.) in accordance with the operation manual of the product. A luminescence value derived from firefly luciferase induced by test substance stimulation in each well of the 96-well plate was divided by a luminescence value derived from Renilla luciferase to calculate a signal, which was then used in analysis. The signal under each transfection condition was normalized with the signal under a stimulation-free condition defined as 0% and the signal by stimulation with 30 μM forskolin defined as 100%, and used as a response (%) in analysis.

[3] = in the presence of a copper ion

CSC [dimethyl sulfide]
EC50 (consensus OR4C15; consensus OR4C15, 30 μM CuCl2, read-out: EC50(μM) with 30 μM CuCl2): 414 µM
dose dependence of the response of consensus OR4C15 (consensus OR4C15; [3]): dose-dependent manner
response of consensus OR4C15 (consensus OR4C15; [3]): responded
EC50 (consensus OR11H2; consensus OR11H2, 30 μM CuCl2): 22 µM
dose dependence of the response of consensus OR11H2 (consensus OR11H2; [3]): dose-dependent manner
response of consensus OR11H2 (consensus OR11H2; [3]): responded
EC50 (consensus OR4E2; consensus OR4E2, 30 μM CuCl2, read-out: EC50(μM) with 30 μM CuCl2): 22 µM
dose dependence of the response of consensus OR4E2 (consensus OR4E2; [3]): dose-dependent manner
response of consensus OR4E2 (consensus OR4E2; [3]): responded
EC50 (consensus OR4K17; consensus OR4K17, 30 μM CuCl2, read-out: EC50(μM) with 30 μM CuCl2): 188 µM
dose dependence of the response of consensus OR4K17 (consensus OR4K17; [3]): dose-dependent manner
response of consensus OR4K17 (consensus OR4K17; [3]): responded
EC50 ([1]; OR4S2 (original), 30 μM CuCl2, read-out: EC50(μM) with 30 μM CuCl2): 22 µM
dose dependence of the response of OR4S2 [1, 3]: dose-dependent manner
response of OR4S2 [1, 3]: responded

C=CCSSSCC=C [diallyl trisulfide]
response of OR4E2 (OR4E2): responds

B1: consensus OR7D4 (c): consensus olfactory receptor polypeptide (protein)
chain: MEAENHTEVSEFLLLGLSEDPELQPLLFGLFLSMYLVTVLGNLLIILAISSDSHLHTPMYFFLSNLSFVDICFISTTVPKMLVNIQAQSKDISYMGCLTQVYFFMIFAGMDNFLLTVMAYDRFVAICHPLHYTVIMNPRLCGLLVLASWFIIFWVSLVHILLMKRLTFCTGTEIPHFFCELAQVLKVACSDTLINNIVLYVATALLGVFPLTGILFSYSQIVSSLMRMSSTKGKYKAFSTCGSHLSVVSLFYGTGLGVYLSSAVTHSSQSSSIASVMYTVVTPMLNPFIYSLRNKDVKGALGRLLSRAASCP
modifications: OR7D4 consensus-c
notes: consensus olfactory receptor polypeptide
ligand responsiveness in comparison with the original human receptor [2]: sufficiently elevated

B2: consensus OR2A25 (b): consensus olfactory receptor polypeptide (protein)
chain: MGGNQTSITEFLLLGFPVGPRIQMLLFGLFSLFYVFTLLGNGTILGLISLDSRLHTPMYFFLSHLAVVDIAYACNTVPQMLVNLLHPAKPISFAGCMTQTFLFLSFAHTECLLLVVMSYDRYVAICHPLRYSAIMTWRVCITLALTSWTLGVLLALIHLVLLLPLPFCRPQKINHFFCEIMAVLKLACADTHINEVMVLAGAISVLVGPLSSIVVSYMCILCAILKIQSGEGQRKAFSTCSSHLCVVGLFYGTAIIMYVGPQYGNPKEQKKYLLLFHSLFNPMLNPLIYSLRNSEVKNTLKRMLEKERAL
modifications: OR2A25 consensus-b
notes: as for B1
ligand responsiveness in comparison with the original human receptor [2]: sufficiently elevated

B3: consensus OR4S2 (b): consensus olfactory receptor polypeptide (protein)
chain: MEKINNVTEFIFWGLSQSPEVQRVCFVVFLFFYIAIVLGNLLIVLTVCLSNSLKSPMYFFLSFLSFVEICYSSVTAPKMIVDLLAKDKTISYVGCMLQLFFVHFFGCTEIFLLTVMAYDRYVAICKPLHYMTIMNRQTCNKLVLGTWVGGFLHSIIQVLLVVQLPFCGPNVIDHYFCDLHPVLKLACTDTFIVGVVVTANSGTIALGSFVILLISYSIILVSLRKQSAEGRRKALSTCGSHITVVILFFGPCIFMYMRPSTTFSEDKMVAVFYTIITPMLNPLIYTLRNAEVKNAMKKLWGRNVFLEAKGK
modifications: OR4S2 consensus-b
notes: as for B1
ligand responsiveness in comparison with the original human receptor [2]: elevates responsiveness

B4: consensus OR7A17 (a): consensus olfactory receptor polypeptide (protein)
chain: MEPENDTGISEFLLLGLSEEPELQPFLFGLFLSMYLVTVLGNLLIILATISDSHLHTPMYFFLSNLSFADICFISTTVPKMLINIQTQSRVITYAGCITQMCFFVLFGGLDSLLLAVMAYDRFVAICHPLHYTVIMNPRLCGLLVLASWMIAALNSLSQSLMVLWLSFCTDLEIPHFFCELNQVIHLACSDTFLNDMGMYFAAGLLAGGPLAGILYSYSKIVSSIRAISSAQGKYKAFSTCASHLSVVSLFCCTGLGVYLTSAATHNSHTSATASVMYTVATPMLNPFIYSLRNKDIKRALKMSFRGKQ
modifications: OR7A17 consensus-a
notes: as for B1
ligand responsiveness in comparison with the original human receptor [2]: elevates responsiveness
